Experimental data published in article PMC11207040, “Synthesis and Biological Studies of New Temporin A Analogs Containing Unnatural Amino Acids in Position 7” (Pharmaceutics, 2024).
Converted amounts (≈) assume the structure as drawn. “And” between values parts separate entries of the source, which are not always exact repeats. Equal values may be shown once. Read-outs that look alike come from different tables or passages of the source. Non-standard residues stand in square brackets, D forms with d. Residues, ends and D or L forms follow the SMILES beside them. Cit = NC(=O)NCCC[C@H](N)C(=O)O; Dap = NC[C@H](N)C(=O)O

Tests used:
[1] = test system: Arthrobacter oxydans NBIMCC 9333; assay type: cell-based; conditions: 24 h
Description: (§1) The parent peptide Temporin A and the novel analogs were subjected to tests against model strains Escherichia coli NBIMCC 8785, Bacillus subtilis NBIMCC 3562, Arthrobacter oxydans NBIMCC 9333, Pseudomonas aeruginosa NBIMCC 3700, and Candida albicans NBIMCC 74, for the assessment of their antimicrobial activity. The strains were acquired from the National Bank for Industrial Microorganisms and Cell Cultures (NBIMCC, Bulgaria). The strain E. coli 8785 was cultured in Luria-Bertani broth (LB, HiMedia, Mumbai, India); B. subtilis 3562—in nutrient broth (NB, HiMedia, Mumbai, India); A. oxydans 9333; P. aeruginosa 3700—in meat peptone agar (MPA) medium; and C. albicans 74—in yeast mold (YM) medium. An incubator shaker ES-20/60 (Biosan, Latvia) was used for the cultivation and was set to 30 °C for B. subtilis 3562, A. oxydans 9333, and C. albicans 74; and 37 °C for E. coli 8785 and P. aeruginosa 3700, with a 24 h shaking period at 120 rpm. The microbial cultures were then adjusted to a turbidity of 0.5 McFarland using a Grant-bio DEN-1B densitometer (Grant Instruments, Royston, UK) for further use.
(§2) The minimal inhibitory concentration (MIC) of the peptides was determined using the broth dilution method. Stock solutions of the peptides with a concentration of 10 mg/mL in 10% EtOH/H2O were prepared. Suspensions of the bacteria in the corresponding media were added to 96-well U-shaped bottom polystyrene plates (Deltalab S.L., Spain) and exposed to the peptide in the concentration range from 0 to 320 µg/mL, and a 10% EtOH/H2O control, diluted using the same scheme as the peptides, was also used. The plates were then incubated under aerobic conditions at the corresponding temperature for 24 h. The MIC (µg/mL) was assumed as the lowest concentration of the antimicrobial, where there was visible inhibition of the strain. The absorbance was measured at 630 nm (Microplate reader PKL PPC 142, Paramedical srl, Salerno, Italy). To determine the minimal bactericidal concentration (MBC) and minimal fungicidal concentration (MFC), 10 μL from concentrations greater than or equal to the MIC was placed on the corresponding solid nutrient medium. The Petri dishes were then incubated at 30 or 37 °C for 24 h. All experiments were conducted in a triplicate.

MDA-MB-231 cells = experiment: MTT antiproliferative assay, MDA-MB-231; assay type: cell-based, human; conditions: for IC50: MTT, 72 h, read-out: Mean IC50 ± SD, MDA-MB-231; for SI (Selectivity Index), MDA-MB-231: SI = IC50 MCF-12F/IC50 tumor cells
Description: (§3) The cell lines BALB 3T3 (mouse embryonic fibroblasts) and MCF-12F (human breast epithelial cells) were used as models for healthy tissue. The MCF-7 and MDA-MB-231 cell lines were used as in vitro models for luminal A- and basal B-type breast cancer, respectively. Cell lines were obtained from the American Type Cultures Collection (ATCC, Manassas, VA, USA). Cells were cultured in Dulbecco modified Eagle’s medium (DMEM) supplemented with 10% fetal bovine serum (FBS), 100 U/mL penicillin, and 0.1 mg/mL streptomycin (Sigma-Aldrich, Schnelldorf, Germany) in an incubator at 37 °C, 5% CO2 and 95% humidity. Plastic flasks 75 cm^2 (Biologix, Lenexa, KS, USA) were used to grow the cells.
(§4) The antiproliferative activity testing was performed on cell cultures using the MTT-dye reduction assay. This assay is based on the metabolism of MTT to insoluble formazan by mitochondrial reductases. The formazan concentration can be determined spectrophotometrically. The measured absorption is an indicator of cell viability. Cell lines (MCF-12F, MCF-7 and MDA-MB-231) were used in the experiments. Cells were plated at a density of 1 × 10^3 cells/100 µL in each well of 96-well microplates and allowed to adhere for 24 h before treatment with test compounds. A concentration range from 4 to 1000 μM was applied for 72 h. The formazan absorption was registered using a microplate reader at λ = 540 nm. Antiproliferative activities were expressed as IC50 values (concentrations required for 50% inhibition of cell growth).

BALB 3T3 clone A31 cells = experiment: 3T3 NRU cytotoxicity/phototoxicity test; assay type: cell-based, mouse; conditions: PIF = CC50 −Irr/CC50 +Irr; PIF < 2 = not phototoxic
Description: as §3
(§5) The cytotoxicity/phototoxicity testing was performed as described by the OECD Guidelines for the Testing of Chemicals, Section 4, Test No. 432: In Vitro 3T3 NRU Phototoxicity Test. BALB 3T3, clone A31 cells were grown in 75 cm^2 tissue culture flasks in DMEM high-glucose (4.5 g/L), 10% FBS, and antibiotics at 37.5 °C, in a humidified atmosphere under 5% CO2. Cells were plated at 1 × 10^4 cells / 100 μL culture medium in each well of 96-well microplates and allowed to adhere for 24 h before treatment with test compounds. Peptides were dissolved in DMSO and diluted with culture medium to working concentrations from 4 to 1000 μM. In phototoxicity tests, 96-well plates were irradiated (+Irr) with a dose of 2.4 J/cm^2 using an artificial solar light simulator Helios-iO (SERIC Ltd., Tokyo, Japan), and the cells were incubated for an additional 24 h. After treatment with a Neutral Red medium, washing, and application of the NR Desorb solution, the absorption was measured on a microplate reader at a wavelength of 540 nm. Cytotoxicity/phototoxicity was expressed as CC50 values (concentrations required for 50% cytotoxicity).

[2] = 3T3 NRU cytotoxicity/phototoxicity test; assay type: cell-based, mouse; conditions: mouse; for CC50: cytotoxicity, no irradiation, BALB 3T3 clone A31, Neutral Red uptake, read-out: Mean CC50 ± SD, −Irr; for CC50 at 24 h: phototoxicity, irradiated 2.4 J/cm^2, BALB 3T3 clone A31, Neutral Red uptake, read-out: Mean CC50 ± SD, +Irr
Description: as §3, §5

MCF-7 cells = experiment: MTT antiproliferative assay, MCF-7; assay type: cell-based, human; conditions: for IC50: MTT, 72 h, read-out: Mean IC50 ± SD, MCF-7; for SI (Selectivity Index), MCF-7: SI = IC50 MCF-12F/IC50 tumor cells
Description: as §3, §4

[3] = test system: Pseudomonas aeruginosa NBIMCC 3700; assay type: cell-based; conditions: for Inhibition effect, P. aeruginosa 3700: zone of peptide over zone of antibiotic x 100; for Inhibition zone, P. aeruginosa 3700: 20 µL per disc, 24 h
Description: as §1
(§6) The disk-diffusion method was used as an additional method, with the aim of determining the percent inhibition of the tested samples against the model strains. Sterile plates with LB/NB/MPA/YM agar medium were inoculated on the surface with 100 μL from each microbial culture and incubated at 30 or 37 °C for 30 min, for the suspension to penetrate the agar. After that, sterile paper discs (HiMedia, Mumbai, India) with a diameter of 6 mm were soaked with 20 µL of the peptide solutions with concentrations of 1.4 mg/mL and 10 mg/mL and placed on the agar surface. Sterile paper discs with 10% EtOH/H2O were used as a negative control, and the corresponding strain antibiotic disks (HiMedia, Mumbai, India)—as a positive control. The incubation of the plate was performed at 30/37 °C for 24 h. The antimicrobial activity was analyzed by measuring the diameter of the inhibition zones in mm. The experiments were conducted in triplicates, and the average values for the percent of inhibition as a correlation between the inhibition zone of the peptides over the inhibition zone of the antibiotic multiplied by 100 were calculated.

[4] = test system: Arthrobacter oxydans NBIMCC 9333; assay type: cell-based; conditions: for Inhibition effect, A. oxydans 9333: zone of peptide over zone of antibiotic x 100; for Inhibition zone, A. oxydans 9333: 20 µL per disc, 24 h
Description: as §1, §6

[5] = test system: Escherichia coli NBIMCC 8785; assay type: cell-based; conditions: for Inhibition zone, E. coli 8785: 20 µL per disc, 24 h
Description: as §1, §6

[6] = test system: Candida albicans NBIMCC 74; assay type: cell-based; conditions: for Inhibition zone, C. albicans 74: 20 µL per disc, 24 h
Description: as §1, §6

[7] = test system: Bacillus subtilis NBIMCC 3562; assay type: cell-based; conditions: for Inhibition effect, B. subtilis 3562: zone of peptide over zone of antibiotic x 100; for Inhibition zone, B. subtilis 3562: 20 µL per disc, 24 h
Description: as §1, §6

MCF-12F cells = experiment: MTT antiproliferative assay, MCF-12F; assay type: cell-based, human; conditions: 72 h, non-tumorigenic cell line, read-out: Mean IC50 ± SD, MCF-12F
Description: as §3, §4

[8] = test system: Bacillus subtilis NBIMCC 3562; assay type: cell-based; conditions: broth dilution, 0 to 320 µg/mL, 24 h; NI = no inhibition monitored
Description: as §1, §2

[9] = 10 µg/disk, positive control on the plate of the peptide of that line

Structure (SMILES)	IC50 (MDA-MB-231 cells)	SI (Selectivity Index), MDA-MB-231 (MDA-MB-231 cells)	PIF (photo irritation factor) (BALB 3T3 clone A31 cells)	CC50 [2]	CC50 at 24 h [2]	IC50 (MCF-7 cells)	SI (Selectivity Index), MCF-7 (MCF-7 cells)	Inhibition effect, P. aeruginosa 3700 ([3]; 1.4 mg/mL)	Inhibition effect, P. aeruginosa 3700 ([3]; 10 mg/mL)	Inhibition zone, P. aeruginosa 3700 ([3]; peptide 1.4 mg/mL)	Inhibition zone, P. aeruginosa 3700 ([3]; peptide 10 mg/mL)	Inhibition effect, A. oxydans 9333 ([4]; 1.4 mg/mL)	Inhibition effect, A. oxydans 9333 ([4]; 10 mg/mL)	Inhibition zone, A. oxydans 9333 ([4]; peptide 1.4 mg/mL)	Inhibition zone, A. oxydans 9333 ([4]; peptide 10 mg/mL)	Inhibition zone, E. coli 8785 ([5]; peptide 1.4 mg/mL)	Inhibition zone, E. coli 8785 ([5]; peptide 10 mg/mL)	Inhibition zone, C. albicans 74 ([6]; peptide 1.4 mg/mL)	Inhibition zone, C. albicans 74 ([6]; peptide 10 mg/mL)	Inhibition effect, B. subtilis 3562 ([7]; 1.4 mg/mL)	also measured
CC[C@H](C)[C@H](NC(=O)CNC(=O)[C@H](CO)NC(=O)[C@H](CC(C)C)NC(=O)[C@@H](NC(=O)[C@H](CCCNC(N)=O)NC(=O)CNC(=O)[C@@H](NC(=O)[C@H](CC(C)C)NC(=O)[C@@H]1CCCN1C(=O)[C@H](CC(C)C)NC(=O)[C@@H](N)Cc1ccccc1)[C@@H](C)CC)C(C)C)C(=O)N[C@@H](CC(C)C)C(N)=O [DTCit, FLPLIG-Cit-VLSGIL-NH2] (H-FLPLIG[Cit]VLSGIL-NH2; N-terminus assumed)	335 ± 4.37 µM	0.90	1.07	356 ± 7.64 µM	332 ± 12.3 µM	150 ± 6.94 µM	2.01	0.0%	0.0%	0.0 mm	0.0 mm	0.0%	0.0%	0.0 mm	0.0 mm	0.0 mm	0.0 mm	0.0 mm	0.0 mm	0.0%	MIC, A. oxydans 9333 ([1]; broth dilution, 0 to 320 µg/mL, NI = no inhibition monitored): 160 µg/mL (≈ 114 µM); MBC, A. oxydans 9333 ([1]; plated from concentrations ≥ MIC): 160 µg/mL (≈ 114 µM); Inhibition effect, B. subtilis 3562 ([7]; 10 mg/mL): 0.0%; Inhibition zone, B. subtilis 3562 ([7]; peptide 1.4 mg/mL): 0.0 mm; Inhibition zone, B. subtilis 3562 ([7]; peptide 10 mg/mL): 0.0 mm; IC50 (MCF-12F cells): 301 ± 10.5 µM
CNC(C)C1CCC(N)C(OC2C(N)CC(N)C(OC3OCC(C)(O)C(NC)C3O)C2O)O1 (stereo not shown) [Gentamicin, reference compound]																					Inhibition zone, P. aeruginosa 3700, antibiotic control [3, 9]: 17.0 mm and 16.0 mm; Inhibition zone, E. coli 8785, antibiotic control [5, 9]: 18.0 mm
O=C(N[C@H](CO)[C@H](O)c1ccc([N+](=O)[O-])cc1)C(Cl)Cl [Chloramphenicol, reference compound]																					Inhibition zone, B. subtilis 3562, antibiotic control ([7]; 30 µg/disk, positive control on the plate of the peptide of that line): 26.0 mm and 25.0 mm
CCC(C)n1ncn(-c2ccc(N3CCN(c4ccc(OCC5COC(Cn6cncn6)(c6ccc(Cl)cc6Cl)O5)cc4)CC3)cc2)c1=O (stereo not shown) [Itraconazole, reference compound]																					Inhibition zone, C. albicans 74, antibiotic control [6, 9]: 15.0 mm and 14.0 mm
CC[C@H](C)[C@H](NC(=O)CNC(=O)[C@H](CO)NC(=O)[C@H](CC(C)C)NC(=O)[C@@H](NC(=O)[C@H](CN)NC(=O)CNC(=O)[C@@H](NC(=O)[C@H](CC(C)C)NC(=O)[C@@H]1CCCN1C(=O)[C@H](CC(C)C)NC(=O)[C@@H](N)Cc1ccccc1)[C@@H](C)CC)C(C)C)C(=O)N[C@@H](CC(C)C)C(N)=O [DTDap, FLPLIG-Dap-VLSGIL-NH2] (H-FLPLIG[Dap]VLSGIL-NH2; N-terminus assumed)	581 ± 17.5 µM	1.09	0.99	924 ± 21.6 µM	933 ± 20.7 µM	473 ± 16.2 µM	1.33	0.0%	51.8%	0.0 mm	8.8 ± 0.8 mm	0.0%	53.0%	0.0 mm	9.8 ± 0.3 mm	0.0 mm	0.0 mm	0.0 mm	0.0 mm	0.0%	MIC, B. subtilis 3562 [8]: 320 µg/mL (≈ 241 µM); Inhibition effect, B. subtilis 3562 ([7]; 10 mg/mL): 0.0%; Inhibition zone, B. subtilis 3562 ([7]; peptide 1.4 mg/mL): 0.0 mm; Inhibition zone, B. subtilis 3562 ([7]; peptide 10 mg/mL): 0.0 mm; IC50 (MCF-12F cells): 630 ± 9.97 µM
